One assay relates to HeLa. Briefly: Cytotoxicity against human HeLa cells after 48 hrs by WST8 assay. The class given is functional, cell-based. (In general: Tetrazolium assays rely on reduction of a dye to a coloured formazan, in cell work by metabolically active cells.)
A further assay has as its system HL-60. The assay is described as follows: Cytotoxicity against human HL60 cells after 48 hrs by WST8 assay. The class given is functional, cell-based. The settings on record: HL-60, 48 h.

Turning to `CO[C@H]1[C@H](O[C@@H]2c3c(cc4c(c3O)C(=N)c3c(O)cccc3C4=O)C(=O)[C@@](C)(O)[C@H]2OC)O[C@@H](C)[C@H](O)[C@H]1O`, the IC50 in the assay on HeLa and in the assay on HL-60 was above 200 µM in each case.

`CO[C@H]1[C@H](O[C@@H]2c3c(cc4c(c3O)C(=O)c3c(O)cccc3C4=O)C(=O)[C@@](C)(O)[C@H]2OC)O[C@@H](C)[C@H](O)[C@H]1O` [ARANCIAMYCIN]: the IC50 (as a rule, the concentration that inhibits the measured activity by half) was 2.7 µM with HeLa and 4.1 µM with HL-60.

Take `CO[C@H]1[C@H](Oc2cc(C)cc3cc4c(c(O)c23)C(=O)c2c(O)cccc2C4=O)O[C@@H](C)[C@H](O)[C@H]1O` [TETRACENOQUINOCIN]: the IC50 in the assay on HeLa is 120 µM; with HL-60, 210 µM.

Source of the values: ChEMBL document CHEMBL1157076, “Tetracenoquinocin and 5-iminoaranciamycin from a sponge-derived Streptomyces sp. Sp080513GE-26” (J Nat Prod, 2010).
